Here are results for 39 molecules from patent publication US20050148534A1, “Small molecule compositions and methods for increasing drug efficiency using compositions thereof” (priority 2003, published 2005).

Some results are limits rather than exact numbers.

Test [1] deals with deoxycytidine kinase (dCK) (Homo sapiens, UniProt P27707). Conditions: cited from earlier work; for dCK: substrate activity, literature (Johansson et al.; Eriksson et al.; Wang et al.), source per Table 3.
Test [2] concerns the target T1, TK2 (Homo sapiens, UniProt O00142).
T1 sequence (O00142 34-265): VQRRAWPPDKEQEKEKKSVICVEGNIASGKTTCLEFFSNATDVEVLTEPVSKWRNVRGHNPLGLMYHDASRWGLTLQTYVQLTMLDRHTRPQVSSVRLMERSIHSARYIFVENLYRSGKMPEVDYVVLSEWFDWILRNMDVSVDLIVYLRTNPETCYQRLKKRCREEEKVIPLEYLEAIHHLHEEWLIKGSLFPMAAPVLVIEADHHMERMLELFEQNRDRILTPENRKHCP
Set-up: unit not given here. Particulars: substrate activity; literature (Johansson et al.; Eriksson et al.; Wang et al.), source per Table 3; cited from earlier work.

Test [3] has as its system tubulin. Description: Fluorescence-based microtubule polymerization assay (MPA). Conditions: mean percentage of paclitaxel or vinblastine activity; 0.75-10 micromolar. Type of test: biochemical. An excerpt: Drug-linker constructs may further be screened using functional assays predictive of biological activity. […] Tubulin assembly or inhibition thereof may be monitored by fluorescence using the CytoDYNAMIX Screen™ 10 kit available from Cytoskeleton (1830 S. Acoma St., Denver, Colo.). […] Emission is monitored at 405 nm with excitation at 360 nm. […] Tubulin assembly or inhibition may also be monitored by light scattering which is approximated by the apparent absorption at 350 nm. For paclitaxel drug conjugates BSA is employed to prevent aggregation and glycerol, which is a tubulin polymerization enhancer, is omitted from the kit to increase the signal to noise ratio.
The assay kit (#BK011) was purchased from Cytoskeleton (Denver, Colo.). The assays were carried out according to the manufacturer's instructions, except that 1 mg/ml BSA (Sigma #A3059) was included in all assays. […] Parent drugs and conjugates were tested at 0.75, 1.5, 3 and 10 micromolar final concentration and results represent a comparison of conjugate and parent drug curves obtained from the linear range of the dose responses.

Chain of deoxycytidine kinase (dCK) (P27707 whole entry, species assumed): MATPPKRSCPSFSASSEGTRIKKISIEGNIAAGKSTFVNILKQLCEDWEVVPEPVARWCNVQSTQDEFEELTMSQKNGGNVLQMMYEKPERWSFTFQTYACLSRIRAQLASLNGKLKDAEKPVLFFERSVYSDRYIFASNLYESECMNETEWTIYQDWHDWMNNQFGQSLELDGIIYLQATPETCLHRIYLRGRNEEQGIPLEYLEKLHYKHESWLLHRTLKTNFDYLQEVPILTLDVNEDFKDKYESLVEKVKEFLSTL

In the case of `Nc1cn([C@@H]2O[C@H](CO)[C@@H](O)[C@H]2O)c(=O)[nH]c1=O` [R2 = NH2, R4 = H, R3 = OH, 5-amino-uridine], in test [1], the “activity towards dCK” value was 17%.
Regarding `Nc1nc(=O)n([C@H]2C[C@H](O)[C@@H](CO)O2)cc1-c1ccccn1` [R2 = 2-pyridyl, X = C], in test [2], the TK2 is 7. For the same molecule, the dCK in test [1] is listed as less than 1.
For `Nc1nc(=O)n([C@H]2C[C@H](O)[C@@H](CO)O2)cc1-c1ccncc1` [R2 = 4-pyridyl, X = C], in test [2], the TK2 was 2. In test [1], the dCK is 5.
With `Cc1cn([C@@H]2C[C@H](O)[C@@H](CO)O2)c(=O)[nH]c1=O` [α-D-Thy], the TK2 in test [2] is reported as 2.4.
As for `CC#Cc1cn([C@@H]2O[C@H](CO)[C@@H](O)[C@@H]2O)c(=O)[nH]c1=O`, the TK2 in test [2] was 30.
Take `Nc1nc(Cl)nc2c1ncn2C1CC(CO)C(CO)O1` (stereo not shown): the dCK in test [1] was 40.
With `CC[C@]1(O)C[C@@H]2CN(CCc3c([nH]c4ccccc34)[C@@](C(=O)OC)(c3cc4c(cc3OC)N(C)[C@H]3[C@@](O)(C(=O)NCCCCCCNC(=O)OC(C)(C)C)[C@H](O)[C@]5(CC)C=CCN6CC[C@]43[C@@H]65)C2)C1` [VBL-3Am-ALK(6)-NH(B)], the “Ave. MPA Act” value in test [3] is given as “A (A<60)”.
For `Nc1ccn([C@H]2C[C@H](F)[C@@H](CO)O2)c(=O)n1` [R4 = H, R5 = H, R3 = F], the TK2 in test [2] is recorded as less than 1. Further, the dCK in test [1] was 60.
Regarding `Nc1nc(=O)n([C@H]2C[C@H](O)[C@@H](CO)O2)cc1Br` [R2 = Br, X = C], the TK2 in test [2] was 40. In test [1], the dCK was 20.
`Nc1ccn([C@@H]2C[C@@H](O)[C@H](CO)O2)c(=O)n1` [β-L-dC]: the TK2 in test [2] was 70.
For `Nc1nc(=O)n([C@H]2C[C@H](O)[C@@H](CO)O2)cc1-c1ccco1` [R2 = 2-furyl, X = C], the TK2 in test [2] was 10. In addition, the dCK in test [1] is 3.
For `Nc1ccn([C@H]2CC[C@@H](CO)O2)c(=O)n1` [β-ddC(2′,3′-dideoxyC), 2′,3′-dideoxyC], the dCK in test [1] was 7.1.
On to `Cc1cn(C2CCC(CO)O2)c(=O)[nH]c1=O` (stereo not drawn) [α-ddT], for which the TK2 in test [2] is 9.8.
On to `O=c1[nH]c(=O)n([C@@H]2O[C@H](CO)[C@@H](O)[C@@H]2O)cc1C1CC1` [R2 = cyclopropyl, R5 = OH], for which the TK2 in test [2] is given as 15.
Take `CC[C@]1(O)C[C@@H]2CN(CCc3c([nH]c4ccccc34)[C@@](C(=O)OC)(c3cc4c(cc3OC)N(C)[C@H]3[C@@](O)(C(=O)NCCCCCCn5c(=O)c(C)cn([C@H]6C[C@H](O)[C@@H](COP(=O)(O)O)O6)c5=O)[C@H](O)[C@]5(CC)C=CCN6CC[C@]43[C@@H]65)C2)C1` [VBL-3Am-ALK(6)-N3-PhTHY]: the “Ave. MPA Act” value in test [3] was “C (C>100)”.
On to `Nc1ccn(C2CC(O)C(CO)O2)c(=O)n1` [α-L-dC], for which the TK2 in test [2] is 0.4.
Regarding `Nc1nc(=O)n([C@H]2C[C@H](O)[C@@H](CO)O2)cc1-c1cccs1` [R2 = 2-thienyl, X = C], the TK2 in test [2] is on record as 30. Moreover, the dCK in test [1] is given as 2.
For `C[C@H]1C=C[C@@H](CO)O1`, the TK2 in test [2] is listed as less than 1. The dCK in test [1] is listed as 4.
Regarding `Nc1ccn([C@@H]2O[C@H](CO)[C@@H](O)[C@H]2O)c(=O)n1` [R4 = OH, R5 = H, R3 = OH], in test [2], the TK2 is listed as less than 1.
For the molecule `CC(=O)O[C@H]1C(=O)[C@]2(C)[C@@H](OC(=O)NCCCCCCn3c(=O)c(C)cn([C@@H]4C[C@H](O)[C@@H](CO)O4)c3=O)C[C@H]3OC[C@@]3(OC(C)=O)[C@H]2[C@H](OC(=O)c2ccccc2)[C@]2(O)C[C@H](OC(=O)[C@H](O)[C@@H](NC(=O)c3ccccc3)c3ccccc3)C(C)=C1C2(C)C` [PXL-7Ca-ALK(6)-N3-αTHY], in test [3], the “Ave. MPA Act” value is listed as “B (B=60-100)”.
Turning to `O=c1ccn([C@@H]2O[C@H](CO)[C@@H](O)[C@H]2O)c(=O)[nH]1` [R2 = H, R5 = OH (araU), araU], the TK2 in test [2] is on record as 20.
Regarding `CC[C@]1(O)C[C@@H]2CN(CCc3c([nH]c4ccccc34)[C@@](C(=O)OC)(c3cc4c(cc3OC)N(C)[C@H]3[C@@](O)(C(=O)NCCCCCCCCN)[C@H](O)[C@]5(CC)C=CCN6CC[C@]43[C@@H]65)C2)C1` [VBL-3Am-ALK(8)-NH2], in test [3], the “Ave. MPA Act” value is “B (B=60-100)”.
Consider `CC(=O)O[C@H]1C(=O)[C@]2(C)[C@@H](OC(=O)CCCCCN)C[C@H]3OC[C@@]3(OC(C)=O)[C@H]2[C@H](OC(=O)c2ccccc2)[C@]2(O)C[C@H](OC(=O)[C@H](O)[C@@H](NC(=O)c3ccccc3)c3ccccc3)C(C)=C1C2(C)C` [PXL-7Es-ALK(5)-NH2], for which the “Ave. MPA Act” value in test [3] is “A (A<60)”.
On to `Nc1nc(=O)n([C@H]2C[C@H](O)[C@@H](CO)O2)cc1F` [R2 = F, X = C], for which, in test [2], the TK2 is 90. The dCK in test [1] is listed as 20.
In the case of `Cc1cn([C@H]2C[C@H](O)[C@@H](CO)O2)c(=O)nc1N` [R2 = CH3, X = C], in test [2], the TK2 is recorded as 40.
In the case of `Cc1cn([C@H]2C[C@@H](O)[C@H](CO)O2)c(=O)[nH]c1=O` [α-L-Thy], the TK2 in test [2] is 1.5.
On to `CC(=O)O[C@H]1C(=O)[C@]2(C)[C@@H](OC(=O)NCCCCCCn3c(=O)c(C)cn([C@H]4C[C@H](O)[C@@H](COP(=O)(O)O)O4)c3=O)C[C@H]3OC[C@@]3(OC(C)=O)[C@H]2[C@H](OC(=O)c2ccccc2)[C@]2(O)C[C@H](OC(=O)[C@H](O)[C@@H](NC(=O)c3ccccc3)c3ccccc3)C(C)=C1C2(C)C` [PXL-7Ca-ALK(6)-N3-PhTHY], for which the “Ave. MPA Act” value in test [3] is “B (B=60-100)”.
Consider `Nc1nc(=O)n([C@H]2C[C@H](O)[C@@H](CO)O2)cc1-c1cccnc1` [R2 = 3-pyridyl, X = C], for which, in test [2], the TK2 is on record as less than 1. For the same molecule, the dCK in test [1] was 4.
For the molecule (±)-Cytallene, the TK2 in test [2] is less than 1. Also, in test [1], the dCK was 20.
With `Nc1ccn([C@H]2CC[C@@H](CO)O2)c(=O)n1` [R4 = H, R5 = H, R3 = H (ddCy, Zalcitabine)], the TK2 in test [2] was less than 1. The dCK in test [1] is given as 30.
For the molecule `Nc1ccn([C@@H]2O[C@H](CO)[C@@H](O)[C@H]2F)c(=O)n1` [R4 = F, R5 = H, R3 = OH], in test [2], the TK2 is 30. The dCK in test [1] is 300.
For `Cc1cn([C@@H]2C[C@@H](O)[C@H](CO)O2)c(=O)[nH]c1=O` [β-L-Thy], in test [2], the TK2 is 60. Further, in test [1], the dCK is recorded as 0.8.
Regarding `Nc1nc(=O)n([C@H]2C[C@H](O)[C@@H](CO)O2)cc1-c1ccsc1` [R2 = 3-thienyl, X = C], the TK2 in test [2] was 30. Moreover, in test [1], the dCK is less than 1.
Regarding `Cc1cn([C@H]2CC[C@@H](CO)O2)c(=O)[nH]c1=O` [β-ddT(3′-deoxyThy), 3′-deoxyThy], the TK2 in test [2] was 3.2.
In the case of `Nc1nc(=O)n([C@H]2C[C@H](O)[C@@H](CO)O2)cc1C1CC1` [R2 = cyclopropyl, X = C], the TK2 in test [2] is given as less than 1. Besides, in test [1], the dCK was 20.
With `Nc1nc(=O)n([C@H]2C[C@H](O)[C@@H](CO)O2)cc1-c1ccoc1` [R2 = 3-furyl, X = C], the TK2 in test [2] is given as 50. In test [1], the dCK is listed as less than 1.
On to `O=c1[nH]c(=O)n([C@@H]2O[C@H](CO)[C@@H](O)[C@@H]2O)cc1-c1cccs1` [R2 = 2-thienyl, R5 = OH], for which the TK2 in test [2] is listed as 6.
For the molecule `Nc1ccn([C@@H]2C[C@H](O)[C@@H](CO)O2)c(=O)n1` [α-D-dC], the TK2 in test [2] was 1.8.
Consider `Cc1cn([C@@H]2O[C@H](CO)[C@@H](O)[C@@H]2O)c(=O)[nH]c1=O` [R2 = CH3, R5 = OH (araT), araT], for which the TK2 in test [2] is on record as 60.
